The assay concerns NCI-H226. The assay is described as follows: 72H TEAD Proliferation Assay (Cell Titer Glo 2.0). Particulars: Homo sapiens, CTG 2.0, cell line not given (NCI-H226 responsive, NCI-H28 non-responsive). The assay is classed as cell-based. The essentials:
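NF2-deficient NCI-H226 mesothelioma cells, TEAD-dependent, treated 72 h; NF2-wild-type NCI-H28 serves as the TEAD-independent counter-screen for off-target cytotoxicity. Viable cells quantified by CellTiter-Glo 2.0 luminescence; background and time-zero signal subtracted, GI50 from nonlinear dose-response fit.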
On the technique in general: ATP-based viability assays read luminescence as a measure of living cells.

What is called GI50 is the concentration giving 50% growth inhibition. A high value points to less potent growth inhibition.

A value given as a limit tells only on which side of the number the result lay.

As for `CC(C)(C)c1ccc(-c2nc3cc(C(=O)O)ncc3n3cccc23)cc1` [I-282, 6-(4-(tert-butyl)phenyl)pyrido[4,3-e]pyrrolo[1,2-a]pyrazine-3-carboxylic acid], under “NCI-H226, 72 h”, the GI50 was 1000 to 5000 nM. `O=C(O)c1ccc2c(c1)nc(N1CCC3(CC1)CC3)c1ncnn12` [I-285, 4-(6-azaspiro[2.5]octan-6-yl)-[1,2,4]triazolo[1,5-a]quinoxaline-7-carboxylic acid] returned a GI50 (NCI-H226, 72 h) of 1000 to 5000 nM. As to `CC(C)(C)c1ccc(-c2nc3cc(C(=O)O)ccc3n3ncnc23)cc1` [I-287, 4-(4-(tert-butyl)phenyl)-[1,2,4]triazolo[1,5-a]quinoxaline-7-carboxylic acid], where the note is “NCI-H226, 72 h”, the GI50 lay within 1000 to 5000 nM.

Consider `C=CC(=O)NCc1cc2cccc(F)c2c(-c2ccc(C(F)(F)F)cc2)n1` [I-289, N-((8-fluoro-1-(4-(trifluoromethyl)phenyl)isoquinolin-3-yl)methyl)acrylamide], for which, under “NCI-H226, 72 h”, the GI50 is not above 1000 nM. Molecule `C=CC(=O)NCc1cc(-c2ccc(C(F)(F)F)cc2)nn2ccnc12` [I-290, N-((6-(4-(trifluoromethyl)phenyl)imidazo[1,2-b]pyridazin-8-yl)methyl)acrylamide] returned a concentration for 50% growth inhibition (GI50) (NCI-H226, 72 h) not above 1000 nM. The same measure, in the same setting: in the case of `O=C(/C=C/CF)NCc1cn2ccnc2c(-c2ccc(C(F)(F)F)cc2F)n1` [I-291, (E)-4-fluoro-N-((8-(2-fluoro-4-(trifluoromethyl)phenyl)imidazo[1,2-a]pyrazin-6-yl)methyl)but-2-enamide] it was not above 1000 nM. `C=CC(=O)NCc1nc(-c2ccc(C(F)(F)F)cc2)c2ccn(C)c2n1` [I-292, N-((7-methyl-4-(4-(trifluoromethyl)phenyl)-7H-pyrrolo[2,3-d]pyrimidin-2-yl)methyl)acrylamide] returned a GI50 (NCI-H226, 72 h) not above 1000 nM. On to `C=CC(=O)NCc1cn2ccnc2c(OCc2cccc(C(F)(F)F)c2)n1` [I-294, N-((8-((3-(trifluoromethyl)benzyl)oxy)imidazo[1,2-a]pyrazin-6-yl)methyl) acrylamide], for which the GI50 (NCI-H226, 72 h) was 1000 to 5000 nM. Regarding `C=CC(=O)NCc1cc2ccc(F)cc2c(-c2ccc(C(F)(F)F)cc2)n1` [I-295, N-((7-fluoro-1-(4-(trifluoromethyl)phenyl)isoquinolin-3-yl)methyl)acrylamide], under “NCI-H226, 72 h”, the GI50 is not above 1000 nM. For `C=CC(=O)NCc1cc2cc(F)ccc2c(-c2ccc(C(F)(F)F)cc2)n1` [I-299, N-((6-fluoro-1-(4-(trifluoromethyl)phenyl)isoquinolin-3-yl)methyl)acrylamide], the GI50 (NCI-H226, 72 h) was not above 1000 nM. On the same count and under the same terms, in the case of `C=CC(=O)NCc1cn2ccnc2c(N(C)Cc2ccc(C(F)(F)F)cc2)n1` [I-300, N-((8-(methyl(4-(trifluoromethyl)benzyl)amino)imidazo[1,2-a]pyrazin-6-yl)methyl)acrylamide] it was not above 1000 nM. For the molecule `C=CC(=O)NCc1cc2ccccc2c(-c2ccc(C(F)(F)F)cc2F)n1` [I-301, N-((1-(2-Fluoro-4-(trifluoromethyl)phenyl)isoquinolin-3-yl)methyl)acrylamide], the GI50 (NCI-H226, 72 h) is not above 1000 nM.

In turn, `C=CC(=O)NCc1cc2ccccc2c(-c2ccc(C(F)(F)F)nc2)n1` [I-302, N-((1-(6-(trifluoromethyl)pyridin-3-yl)isoquinolin-3-yl)methyl)acrylamide] registered a GI50 (NCI-H226, 72 h) not above 1000 nM. `C=CC(=O)NCc1nc(-c2ccc(C(F)(F)F)cc2F)c2ccccc2n1` [I-303, N-((4-(2-fluoro-4-(trifluoromethyl)phenyl)quinazolin-2-yl)methyl)acrylamide] came in with a GI50 (NCI-H226, 72 h) not above 1000 nM. Molecule `C=CC(=O)NCc1nc(-c2ccc(C(F)(F)F)cc2)c2cccnc2n1` [I-304, N-((4-(4-(trifluoromethyl)phenyl)pyrido[2,3-d]pyrimidin-2-yl)methyl)acrylamide] showed a GI50 (NCI-H226, 72 h) not above 1000 nM.

Molecule `C=CC(=O)NCc1nc(-c2ccc(C(F)(F)F)cc2)c2ncccc2n1` [I-305, N-((4-(4-(trifluoromethyl)phenyl)pyrido[3,2-d]pyrimidin-2-yl)methyl)acrylamide] registered a GI50 (NCI-H226, 72 h) not above 1000 nM.

Under “NCI-H226, 72 h”, `C=CC(=O)NCc1nc(-c2ccc(C(F)(F)F)cc2F)c2ncccc2n1` [I-306, N-((4-(2-fluoro-4-(trifluoromethyl)phenyl)pyrido[3,2-d]pyrimidin-2-yl)methyl)acrylamide] gave a GI50 not above 1000 nM. Molecule `C=C(F)C(=O)NCc1nc(-c2ccc(C(F)(F)F)cc2)c2cccnc2n1` [I-307, 2-fluoro-N-((4-(4-(trifluoromethyl)phenyl)pyrido[2,3-d]pyrimidin-2-yl)methyl)acrylamide] yielded a GI50 (NCI-H226, 72 h) not above 1000 nM. Consider `O=C(/C=C/CF)NCc1nc(-c2ccc(C(F)(F)F)cc2)c2cccnc2n1` [I-308, (E)-4-fluoro-N-((4-(4-(trifluoromethyl)phenyl)pyrido[2,3-d]pyrimidin-2-yl)methyl)but-2-enamide], for which the GI50 is not above 1000 nM. Where the note is “NCI-H226, 72 h”, `C=CC(=O)NCc1nc(-c2ccc(C(F)(F)F)cc2)c2ccncc2n1` [I-309, N-((4-(4-(trifluoromethyl)phenyl)pyrido[3,4-d]pyrimidin-2-yl)methyl)acrylamide] showed a GI50 not above 1000 nM. Consider `CNS(=O)(=O)c1ccc2c(c1)nc(-c1ccc(C(C)(C)C)cc1)c1cccn12` [I-310, 4-(4-(tert-butyl)phenyl)-N-methylpyrrolo[1,2-a]quinoxaline-7-sulfonamide], for which, under “NCI-H226, 72 h”, the GI50 fell in the range of 1000 to 5000 nM.

For the setting “NCI-H226, 72 h”, `CC(C)(C)c1ccc(-c2nc3cc(S(N)(=O)=O)ccc3n3cccc23)cc1` [I-311, 4-(4-(tert-butyl)phenyl)pyrrolo[1,2-a]quinoxaline-7-sulfonamide] returned a GI50 of 1000 to 5000 nM. For the molecule `C=CC(=O)Nc1ccc2c(c1)nc(-c1ccc(C(F)(F)F)cn1)c1nccn12` [I-312, N-(4-(5-(trifluoromethyl)pyridin-2-yl)imidazo[1,2-a]quinoxalin-7-yl)acrylamide], for the setting “NCI-H226, 72 h”, the GI50 is not above 1000 nM. Same read-out and setting: in the case of `C=CC(=O)NCc1cn2ccnc2c(-c2ccc(C(F)(F)F)cn2)n1` [I-313, N-((8-(5-(trifluoromethyl)pyridin-2-yl)imidazo[1,2-a]pyrazin-6-yl)methyl)acrylamide] it was 1000 to 5000 nM; in that of `C=CC(=O)NCc1cn2cccc2c(-c2ccc(C(F)(F)F)cn2)n1` [I-314, N-((1-(5-(Trifluoromethyl)pyridin-2-yl)pyrrolo[1,2-a]pyrazin-3-yl)methyl)acrylamide], not above 1000 nM. Still for that read-out and setting: in the case of `C=CC(=O)NCc1cc2nccn2c(-c2ccc(C(F)(F)F)cc2)n1` [I-315, N-((5-(4-(trifluoromethyl)phenyl)imidazo[1,2-c]pyrimidin-7-yl)methyl)acrylamide] it was not above 1000 nM; in that of `C=CC(=O)NCc1cn2nccc2c(-c2ccc(C(F)(F)F)cc2)n1` [I-316, N-((4-(4-(trifluoromethyl)phenyl)pyrazolo[1,5-a]pyrazin-6-yl)methyl)acrylamide], not above 1000 nM; in that of `C=CC(=O)NCc1cn2cnnc2c(-c2ccc(C(F)(F)F)cc2)n1` [I-317, N-((8-(4-(trifluoromethyl)phenyl)-[1,2,4]triazolo[4,3-a]pyrazin-6-yl)methyl)acrylamide], 1000 to 5000 nM. In turn, `C=CC(=O)NCc1cn2c(F)ccc2c(-c2ccc(C(F)(F)F)cc2)n1` [I-318, N-((6-Fluoro-1-(4-(trifluoromethyl)phenyl)pyrrolo[1,2-a]pyrazin-3-yl)methyl)acrylamide] came in with a GI50 (NCI-H226, 72 h) not above 1000 nM. Consider `C=CC(=O)NCc1cn2cccc2c(-c2ccc(C(F)(F)F)cc2)n1` [I-319, N-((1-(4-(trifluoromethyl)phenyl)pyrrolo[1,2-a]pyrazin-3-yl)methyl)acrylamide], for which the GI50 (NCI-H226, 72 h) was not above 1000 nM. The same measure, in the same setting: in the case of `CS(=O)(=O)NCc1cn2cccc2c(-c2ccc(C(F)(F)F)cc2)n1` [I-320, N-((1-(4-(trifluoromethyl)phenyl)pyrrolo[1,2-a]pyrazin-3-yl)methyl)methanesulfonamide] it was 1000 to 5000 nM. Still for that read-out and setting: in the case of `Cc1cc(C(=O)O)cc2nc(-c3ccc(C(C)(C)C)cc3)c3cccn3c12` [I-321, 4-(4-(Tert-butyl)phenyl)-9-methylpyrrolo[1,2-a]quinoxaline-7-carboxylic acid] it was 1000 to 5000 nM; in that of `C=CC(=O)NCc1nc(-c2ccc(C(F)(F)F)cc2)cc2nccn12` [I-322, N-((7-(4-(Trifluoromethyl)phenyl)imidazo[1,2-c]pyrimidin-5-yl)methyl)acrylamide], not above 1000 nM; in that of `CC(C)(C)c1ccc(-c2nc3cc(S(C)(=O)=O)ccc3n3cccc23)cc1` [I-323, 4-(4-(tert-butyl)phenyl)-7-(methylsulfonyl)pyrrolo[1,2-a]quinoxaline], 1000 to 5000 nM. The molecule `COc1cc(-c2ccc(C(F)(F)F)cc2)nc2cc(C(=O)N[C@H](C)CO)ccc12` [I-324, (R)—N-(1-hydroxypropan-2-yl)-4-methoxy-2-(4-(trifluoromethyl)phenyl)quinoline-7-carboxamide] gave a GI50 (NCI-H226, 72 h) not above 1000 nM. The molecule `COc1cc(-c2ccc(C(F)(F)F)cc2)nc2cc(C(=O)N[C@@H](C)CO)ccc12` [I-325, (S)—N-(1-hydroxypropan-2-yl)-4-methoxy-2-(4-(trifluoromethyl)phenyl)quinoline-7-carboxamide] had a GI50 (NCI-H226, 72 h) not above 1000 nM. `CC[C@H](CO)NC(=O)c1ccc2c(OC)cc(-c3ccc(C(F)(F)F)cc3)nc2c1` [I-326, (R)—N-(1-hydroxybutan-2-yl)-4-methoxy-2-(4-(trifluoromethyl)phenyl)quinoline-7-carboxamide]: the GI50 (NCI-H226, 72 h) was not above 1000 nM. On the same count and under the same terms, in the case of `COc1cc(-c2ccc(C(F)(F)F)cc2)nc2cc(C(=O)N[C@@H](C)c3ccccn3)ccc12` [I-327, (S)-4-methoxy-N-(1-(pyridin-2-yl)ethyl)-2-(4-(trifluoromethyl)phenyl)quinoline-7-carboxamide] it was not above 1000 nM; in that of `COc1cc(N2CCC(C(F)(F)F)CC2)nc2cc(C(=O)N[C@H](C)CO)ccc12` [I-328, (R)—N-(1-hydroxypropan-2-yl)-4-methoxy-2-(4-(trifluoromethyl)piperidin-1-yl)quinoline-7-carboxamide], 1000 to 5000 nM. Molecule `C[C@H](CO)NC(=O)c1ccc2c(OC(F)F)cc(-c3ccc(C(F)(F)F)cc3)nc2c1` [I-330, (R)-4-(difluoromethoxy)-N-(1-hydroxypropan-2-yl)-2-(4-(trifluoromethyl)phenyl)quinoline-7-carboxamide] displayed a GI50 (NCI-H226, 72 h) not above 1000 nM.

Values taken from patent US12655150B2 (Cedilla Therapeutics, Inc., priority 2021, dated 2026).
